# Data as given in ChEMBL document CHEMBL6182930, “Discovery of TBK1Molecular Glue Degraders as a Potential Strategy for the Treatment of Autosomal Dominant Polycystic Kidney Disease (ADPKD)” (J Med Chem, 2025).
# Activity calls are given as the source filed them. The calls are words filed in the database; no cut-off is given here.
# Key:
# [1] = target: Protein cereblon/Serine/threonine-protein kinase TBK1 (Homo sapiens) (UniProt Q9UHD2+Q96SW2); experiment: PROTAC activity at CRBN/TBK1 in human A549 cells assessed as induction of TBK1 degradation at 1 to 10 uM incubated for 16 hrs by Western blot analysis; assay type: cell-based; conditions: dose 1-10 µM
# [2] = target: T1, Serine/threonine-protein kinase TBK1 (Homo sapiens, UniProt Q9UHD2); experiment: Inhibition of TBK1-dependent SEAP reporter gene expression in LPS-stimulated human THP1-Blue ISG cells incubated for 24 hrs by QUANTI-Blue reagent based analysis; assay type: cell-based
# T1 sequence (Q9UHD2 whole entry): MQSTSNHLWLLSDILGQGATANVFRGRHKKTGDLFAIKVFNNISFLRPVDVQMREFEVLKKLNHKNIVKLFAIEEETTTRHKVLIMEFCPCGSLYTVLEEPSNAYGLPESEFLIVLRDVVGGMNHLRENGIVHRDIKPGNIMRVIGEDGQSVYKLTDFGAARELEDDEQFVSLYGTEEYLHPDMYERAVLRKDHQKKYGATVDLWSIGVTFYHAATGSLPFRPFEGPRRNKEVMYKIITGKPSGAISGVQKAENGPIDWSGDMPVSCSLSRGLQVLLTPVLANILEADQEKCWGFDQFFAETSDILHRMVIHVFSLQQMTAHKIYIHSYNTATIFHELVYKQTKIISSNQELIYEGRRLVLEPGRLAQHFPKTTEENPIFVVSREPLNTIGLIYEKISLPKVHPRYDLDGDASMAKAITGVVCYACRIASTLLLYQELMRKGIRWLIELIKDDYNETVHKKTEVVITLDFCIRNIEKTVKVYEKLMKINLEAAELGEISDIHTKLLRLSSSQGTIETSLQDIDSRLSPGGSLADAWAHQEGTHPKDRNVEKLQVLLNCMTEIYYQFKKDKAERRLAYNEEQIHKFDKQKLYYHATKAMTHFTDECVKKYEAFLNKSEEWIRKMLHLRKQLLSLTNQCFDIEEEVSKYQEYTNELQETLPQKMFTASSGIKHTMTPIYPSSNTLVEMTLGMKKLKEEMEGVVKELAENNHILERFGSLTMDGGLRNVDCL
# MDCK = experiment: Inhibition of cystogenesis in forskolin-stimulated MDCK cells assessed as reduction in cyst growth at 100 nM administrated for 8 days starting from day 4 to day 12 by imaging analysis; assay type: functional, cell-based; conditions: Canis lupus familiaris, time 8.0 day
# [3] = target: T2, E3 ubiquitin-protein ligase RNF126/Serine/threonine-protein kinase TBK1 (Homo sapiens, UniProt Q9UHD2+Q9BV68); experiment: Molecular glue activity at RNF126/TBK1 in HEK293T cells assessed as induction of TBK1 degradation at 1 uM incubated for 16 hrs by Western blot analysis; assay type: cell-based
# [4] = target: T2, E3 ubiquitin-protein ligase RNF126/Serine/threonine-protein kinase TBK1; experiment: Molecular glue activity at RNF126/TBK1 in human A549 cells assessed as induction of TBK1 degradation at 1 uM incubated for 16 hrs by Western blot analysis; assay type: cell-based
# Sequence of Protein cereblon/Serine/threonine-protein kinase TBK1 (Homo sapiens) (Q96SW2 whole entry, looked up, one chain of several): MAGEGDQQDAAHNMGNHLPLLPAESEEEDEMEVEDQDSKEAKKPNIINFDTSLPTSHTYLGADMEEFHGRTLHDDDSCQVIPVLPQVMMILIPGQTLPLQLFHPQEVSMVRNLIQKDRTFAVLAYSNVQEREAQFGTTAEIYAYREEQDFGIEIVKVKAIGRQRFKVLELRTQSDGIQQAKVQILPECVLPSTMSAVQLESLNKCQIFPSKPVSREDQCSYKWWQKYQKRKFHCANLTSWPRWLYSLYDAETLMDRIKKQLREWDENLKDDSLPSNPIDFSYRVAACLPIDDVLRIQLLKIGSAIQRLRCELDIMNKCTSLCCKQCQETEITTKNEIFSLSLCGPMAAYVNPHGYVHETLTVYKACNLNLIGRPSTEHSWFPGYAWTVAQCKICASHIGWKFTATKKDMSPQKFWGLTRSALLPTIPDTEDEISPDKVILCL
# T2 sequence (Q9BV68 2-311 partner limits assumed, one chain of several): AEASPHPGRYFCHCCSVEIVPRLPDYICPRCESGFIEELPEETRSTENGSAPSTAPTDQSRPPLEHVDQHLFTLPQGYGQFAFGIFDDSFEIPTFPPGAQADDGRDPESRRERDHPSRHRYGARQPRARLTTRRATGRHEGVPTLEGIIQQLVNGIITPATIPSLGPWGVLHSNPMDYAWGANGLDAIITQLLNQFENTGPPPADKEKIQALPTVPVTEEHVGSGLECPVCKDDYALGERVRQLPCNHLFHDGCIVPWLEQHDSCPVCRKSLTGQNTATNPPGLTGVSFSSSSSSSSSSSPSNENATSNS
Activity [1],Structure (SMILES),other results
inactive,Cc1ncsc1-c1ccc(CNC(=O)[C@@H]2C[C@@H](O)CN2C(=O)[C@H](NC(=O)CCCCCCCCCCC(=O)N2CCN(Cc3cccc(Nc4ncc5ccn(CCCNC(=O)C6CCC6)c5n4)c3)CC2)C(C)(C)C)cc1,–
inactive,Cc1ncsc1-c1ccc(CNC(=O)[C@@H]2C[C@@H](O)CN2C(=O)[C@H](NC(=O)CCCCC(=O)N2CCN(Cc3cccc(Nc4ncc5ccn(CCCNC(=O)C6CCC6)c5n4)c3)CC2)C(C)(C)C)cc1,–
inactive,Cc1ncsc1-c1ccc(CNC(=O)[C@H]2C[C@H](O)CN2C(=O)[C@@H](NC(=O)COCC(=O)N2CCN(Cc3cccc(Nc4ncc5ccn(CCCNC(=O)C6CCC6)c5n4)c3)CC2)C(C)(C)C)cc1,–
inactive,Cc1ncsc1-c1ccc(CNC(=O)[C@@H]2C[C@@H](O)CN2C(=O)[C@H](NC(=O)CCCCCCCCC(=O)N2CCN(Cc3cccc(Nc4ncc5ccn(CCCNC(=O)C6CCC6)c5n4)c3)CC2)C(C)(C)C)cc1,–
inactive,Cc1ncsc1-c1ccc(CNC(=O)[C@H]2C[C@H](O)CN2C(=O)[C@@H](NC(=O)COCCOCCOCC(=O)N2CCN(Cc3cccc(Nc4ncc5ccn(CCCNC(=O)C6CCC6)c5n4)c3)CC2)C(C)(C)C)cc1,–
inactive,Cc1ncsc1-c1ccc(CNC(=O)[C@@H]2C[C@@H](O)CN2C(=O)[C@H](NC(=O)CCCCCCC(=O)N2CCN(Cc3cccc(Nc4ncc5ccn(CCCNC(=O)C6CCC6)c5n4)c3)CC2)C(C)(C)C)cc1,–

# The remaining lines, values behind:
Structure (SMILES),Activity [1],other results
O=C1CCC(N2C(=O)c3cccc(NCCCCCCCC(=O)N4CCN(Cc5cccc(Nc6ncc7ccn(CCCNC(=O)C8CCC8)c7n6)c5)CC4)c3C2=O)C(=O)N1 (stereo unspecified),inactive,–
O=C1CCC(N2C(=O)c3ccc(OCCCCCCCCCCCC(=O)N4CCN(Cc5cccc(Nc6ncc7ccn(CCCNC(=O)C8CCC8)c7n6)c5)CC4)cc3C2=O)C(=O)N1 (stereo unspecified),inactive,–
CC(=O)N1CCN(Cc2cccc(Nc3ncc4ccn(CCCNC(=O)C5CCC5)c4n3)c2)CC1,–,IC50 [2]: 228 nM; inhibition (MDCK): inactive
O=C1CCC(N2C(=O)c3cccc(NCCCCCCCCCC(=O)N4CCN(Cc5cccc(Nc6ncc7ccn(CCCNC(=O)C8CCC8)c7n6)c5)CC4)c3C2=O)C(=O)N1 (stereo unspecified),inactive,–
O=C1CCC(N2C(=O)c3cccc(NCCCCCC(=O)N4CCN(Cc5cccc(Nc6ncc7ccn(CCCNC(=O)C8CCC8)c7n6)c5)CC4)c3C2=O)C(=O)N1 (stereo unspecified),inactive,–
O=C1CCC(N2C(=O)c3cccc(NCCOCCOCCC(=O)N4CCN(Cc5cccc(Nc6ncc7ccn(CCCNC(=O)C8CCC8)c7n6)c5)CC4)c3C2=O)C(=O)N1 (stereo unspecified),inactive,–
O=C1CCC(N2C(=O)c3ccc(OCCCCCCCCCC(=O)N4CCN(Cc5cccc(Nc6ncc7ccn(CCCNC(=O)C8CCC8)c7n6)c5)CC4)cc3C2=O)C(=O)N1 (stereo unspecified),inactive,–
O=C1CCC(N2C(=O)c3cccc(NCCCC(=O)N4CCN(Cc5cccc(Nc6ncc7ccn(CCCNC(=O)C8CCC8)c7n6)c5)CC4)c3C2=O)C(=O)N1 (stereo unspecified),Active; Compound Exhibited Only Weak Degradation Compared To Control 3I,–
Cc1ncsc1-c1ccc(CNC(=O)[C@@H]2C[C@@H](O)CN2C(=O)[C@@H](NC(=O)COCCCOCCCCOCCCOc2ccc(Nc3ncc(Br)c(NCCCN(C)C(=O)C4CCC4)n3)cc2)C(C)(C)C)cc1,–,IC50 [2]: 76.4 nM
COc1ccc(C(=O)CCC(=O)N2CCN(CC3CCN(Cc4cccc(Nc5ncc6ccn(CCCNC(=O)C7CCC7)c6n5)c4)CC3)CC2)cc1,–,Activity [3]: inactive; Activity [4]: inactive
Cc1ncsc1-c1ccc(CNC(=O)[C@@H]2C[C@@H](O)CN2C(=O)[C@H](NC(=O)CCC(=O)N2CCN(Cc3cccc(Nc4ncc5ccn(CCCNC(=O)C6CCC6)c5n4)c3)CC2)C(C)(C)C)cc1,Active; Compound Exhibited Only Weak Degradation Compared To Control 3I,–
COc1ccc(C(=O)/C(C#N)=C/C(=O)N2CCN(Cc3cccc(Nc4ncc5ccn(CCCNC(=O)C6CCC6)c5n4)c3)CC2)cc1,–,Activity [3]: inactive; Activity [4]: inactive
COc1ccc(C(=O)/C=C/C(=O)N2CCN(Cc3cccc(Nc4ncc5ccn(CCCNC(=O)C6CCC6)c5n4)c3)CC2)cc1,–,Activity [3]: Active; Activity [4]: Active
COc1ccc(C(=O)/C=C(\C#N)C(=O)N2CCN(Cc3cccc(Nc4ncc5ccn(CCCNC(=O)C6CCC6)c5n4)c3)CC2)cc1,–,Activity [3]: inactive; Activity [4]: inactive
COc1ccc(C(=O)/C=C/C(=O)N2CCN(C)CC2)cc1,–,Activity [3]: inactive; Activity [4]: inactive
COc1ccc(C(=O)/C=C/C(=O)N2CCN(Cc3ccc(Nc4ncc5ccn(CCCNC(=O)C6CCC6)c5n4)cc3)CC2)cc1,–,Activity [3]: Active; Activity [4]: Active
O=C1CCC(N2C(=O)c3ccc(OCCCCCC(=O)N4CCN(Cc5cccc(Nc6ncc7ccn(CCCNC(=O)C8CCC8)c7n6)c5)CC4)cc3C2=O)C(=O)N1 (stereo unspecified),Active; Compound Exhibited Only Weak Degradation Compared To Control 3I,–
O=C1CCC(N2C(=O)c3ccc(OCCCCCCCC(=O)N4CCN(Cc5cccc(Nc6ncc7ccn(CCCNC(=O)C8CCC8)c7n6)c5)CC4)cc3C2=O)C(=O)N1 (stereo unspecified),inactive,–
